Patent US20110251085A1, “IN VITRO METHOD TO DETERMINE WHETHER A DRUG CANDIDATE ACTIVE AGAINST A TARGET PROTEIN IS ACTIVE AGAINST A VARIANT OF SAID PROTEIN” (VIVALIS, priority 2008, published 2011)
“Also recorded” adds a separate entry of the source. Like-named read-outs stand apart in the source and are kept apart here.

Experiments:
ER = test: Yeast two-hybrid spot test, control clone ER + 3D-sensor No 30-2; type: cell-based
Description: (a) Isolation of peptides interacting with the NS5BΔ21 in the yeast two-hybrid-system. Yeast cells carrying the bait (NS5BΔ21-LexA) were transformed with the prey represented by a library of random peptides (in frame with the viral VP16 activation domain). Colonies growing on selective medium and staining blue allowed the isolation of individual peptides that would specifically interact with the polymerase. (b) Isolation of conformation sensitive peptides. The interacting peptides were then tested in presence of ligands known to induce conformational changes in the bait NS5B. The “3D-sensors” were thus identified as the ones whose binding to the target polymerase was prevented by known anti-NS5B. The corresponding colonies didn't show any expression of the selection or reporter gene. (c) Characterization of NS5BΔ21 “3D-sensors” in a spot test. Here were represented 2 selected yeast colonies: one carrying the ER and its specific peptide called No 30-2 isolated previously and used as a control, the other carrying the NS5BΔ21 and its specific peptide called N21C272. Both clones were spotted on selective medium lacking histidine, leucine and tryptophane, supplemented or not with polymerase ligands and overlayed with an X-Gal staining The NS5BΔ21+N21C272 clone grew on selective medium in the absence of any NS5B ligand and stained positive for LacZ. […]

NS5BΔ21 = biological target: T1, NS5BΔ21 (Hepatitis C virus genotype 1b, UniProt P26662); type: cell-based, HCV genotype 1b; details: selective medium lacking histidine, leucine and tryptophane, supplemented with ligand, X-Gal overlay
T1 construct: lexA/truncated HCV polymerase lacking the C-terminal 21 amino-acids fusion protein as a bait; expressed in transfected cells; host or cells: Saccharomyces cerevisiae L40, plasmid pVVS468
Procedure: Yeast cells carrying the bait (NS5BΔ21-LexA) were transformed with the prey represented by a library of random peptides (in frame with the viral VP16 activation domain). […] The interacting peptides were then tested in presence of ligands known to induce conformational changes in the bait NS5B.
The naïve yeast was transformed with the pVVS468 (NS5BΔ21 fused to LexA) according to the Lithium Acetate transformation protocol (Schiestl et al, 1989). […] Resulting double transformants were spread on SD Agar medium lacking Tryptophan and Leucine, and incubated for 48 hours at 30° C. Colonies were then scraped and mixed. 1/500th of the suspension obtained was plated on SD Agar medium lacking Tryptophan, Leucine and Histidine to identify HIS3 reporter's activation. After 3 to 5 days of growth, an X-Gal overlay was performed to identify LacZ activation. An X-Gal solution was mixed with an equal volume of 1% agarose cooled to 50° C. then poured slowly over yeast colonies on the surface of agar plates. The individual clones that stained blue were picked up to be grown overnight in deep wells in order to be further analyzed.
Yeast colonies containing a peptide interacting with the bait were grown overnight in 96-well deepwells in trp-leu-liquid medium. They were then spotted using a plugger either on trp-leu-his-or trp-leu-solid medium supplemented with different concentrations of specific or non specific drugs or an equivalent amount of solvent (DMSO). […] Result was confirmed at least 3 times.
Yeast two-hybrid experiments were carried in the L40 strain (ATCC, Molsheim, France) transformed with a lexA/truncated HCV polymerase lacking the C-terminal 21 amino-acids fusion protein as a bait and the VVS001 peptide library as a prey. […] Conformation sensitive peptides or “3D-sensors” were then identified by addition to the selected individual yeast colonies of cVVS-023477 or cVVS-023476, two anti-NS5B drugs known to induce conformational changes in the target polymerase (FIG. 1b).

native NS5BΔ21 = biological target: T2, native NS5BΔ21 (Hepatitis C virus genotype 1b, UniProt P26662); test: 3D-Screen-NS5B platform, luciferase reporter, Hela cells, native NS5BΔ21; type: cell-based, HCV genotype 1b; details: HeLa, 24 hours; for inhibition at 10 µM: 10 uM final concentration, 3D-sensor N21C272, versus DMSO
T2 construct: expressed in transfected cells; host or cells: Hela cells, plasmid pVVS478
Procedure: Transfections were performed for 2 hours in 100 mm dishes in 2 to 4 million cells with 5 to 20 ug of total DNA complexed to jetPEI (PolyPLus transfection, Illkirch, France) with a N/P ratio of 8 The optimal ratio between the plasmids encoding for the luciferase reporter, the target and the selected 3Dsensor was: 3 ug/1 ug/0.5 ug. Cells were dissociated and 25000 cells per well were seeded in 96 well culture treated plates (BD Biosciences, Erembodegem, Belgium).
Compound library's plates were thawed at room temperature. Drugs were handled by a Genesis workstation (Tecan, Lyon, France) and added to the cells at a 5 uM (in 0.5% DMSO) final concentration. Screening was performed by runs of twenty plates. Hits were identified by measurement of the luciferase activity.
Cell culture supernatant was discarded and 100 ul of Lysis buffer were added to each well. Following […] of vigorous shaking, the lysate was transferred to white opaque 96 well-plates and 100 ul of Luciferin buffer were added. Chemi-luminescence measurement was performed immediately using a Microlumat LB96 luminometer (Berthold, Thoiry, France) with 1 or 10 sec integration time.
Selected hits were synthesized and tested at concentrations varying between 0.01 uM and 100 uM final concentration so as to determine their IC50 on 3 independent experiments.
3D-sensors confirmed in yeast were further investigated in human cells. Among the reasons of choosing Hela cells figured their wide use, easiness of manipulation and capacity of replicating subgenomic HCV replicons (Zhu et al., 2003; Kato et al., 2005).
To validate whether drug's action on our system was stokiometric or not, Hela cells were transiently transfected with three expression plasmids encoding the reporter gene luciferase, the target protein and the conformation sensitive peptide N21C272. After incubation with increasing amounts of reference drugs cVVS-023476 or cVVS-023477, luciferase expression was measured.

native NS4A-NS3 protease = biological target: T3, native NS4A-NS3 protease (Hepatitis C virus genotype 1b, UniProt P26662, I1158V/V1140I); test: 3D-Screen NS4A-NS3 protease platform, luciferase reporter, Hela cells, native; type: cell-based, HCV genotype 1b; details: HeLa; 2 uM final concentration, 3D-sensor V7-62
T3 construct: the NS3 protease (residues 3-181); expressed in transfected cells; host or cells: Hela cells
Procedure: (§3) Cell culture supernatant was discarded and 100 ul of Lysis buffer were added to each well. Following 10 nm of vigorous shaking, the lysate was transferred to white opaque 96 well-plates and 100 ul of Luciferin buffer were added. Chemi-luminescence measurement was performed immediately using a Microlumat LB96 luminometer (Berthold, Thoiry, France) with 1 or 10 sec integration time.
3D-sensors confirmed in yeast were further investigated in Hela cells.

[1] = biological target: T4, native NS4A-NS3 full length protein (Hepatitis C virus genotype 1b, UniProt P26662); test: 3D-Screen NS4A-NS3 full length platform, luciferase reporter, Hela cells, native; type: cell-based, HCV genotype 1b; parameters: the GSGS linker and the NS3 protease (residues 3-631); expressed in transfected cells; details: HeLa; 2 uM final concentration, 3D-sensor H5-34
Procedure: as §3

[2] = biological target: T5, NS4A-NS3 full length protein D168V (Hepatitis C virus genotype 1b, UniProt P26662, D1194V); test: 3D-Screen NS4A-NS3 full length mutant profiling platform, Huh7 cells, D168V; type: cell-based, HCV genotype 1b
T5 construct: the GSGS linker and the NS3 protease (residues 3-631); expressed in transfected cells; host or cells: Huh7 hepatoma cells
Procedure: (§1) Hela cells (ATCC, Molsheim, France) were maintained in EMEM (Minimum Essential Medium Eagle with Earle's Balanced Salt solution without L-Glutamine; Biowhittaker/Cambrex, East Rutherford, N.J., USA) supplemented with 10% FBS (JRH), 2 mM Glutamine (Biowhittaker/Cambrex), 1% Non-essential Amino acids (Biowhittaker/Cambrex), 100 units/ml Penicillin and 100 ug/ml Streptomycin. Cells were kept in a humidified 5% CO2 atmosphere at 37° C. and dissociated using Trypsine-EDTA (1×) when reaching 80-90% confluence. Huh-7 hepatoma derived cells (Nakabayashi H et al, 1982) were maintained in half volume of DMEM (Dulbecco's […] Medium without L-Glutamine; Lonza, Basel, Switzerland) and half volume of Ham's F12 medium (Lonza, Basel, Switzerland) supplemented with 10% FBS (SAFC, USA), 1 mM Glutamine (Lonza, Basel, Switzerland), 0.5 mM Sodium pyruvate (Lonza, Basel, Switzerland), 100 units/ml Penicillin and 100 ug/ml Streptomycin. Cells were kept in a humidified 5% CO2 atmosphere at 37° C. and dissociated using Trypsine-EDTA (1×) when reaching 80-90% confluence. […]
(§2) Cell culture supernatant was discarded and 100 ul of Lysis buffer were added to each well. […] Chemi-luminescence measurement was performed immediately using a Microlumat LB96 luminometer (Berthold, Thoiry, France) with 1 or 10 sec integration time.

[3] = biological target: T6, NS4A-NS3 full length protein A156V (Hepatitis C virus genotype 1b, UniProt P26662, A1182V); test: 3D-Screen NS4A-NS3 full length mutant profiling platform, Huh7 cells, A156V; type: cell-based, HCV genotype 1b
T6 construct: the GSGS linker and the NS3 protease (residues 3-631); expressed in transfected cells; host or cells: Huh7 hepatoma cells
Procedure: as §1, §2

protease = details: described in Lamarre et al, 2003; cited from earlier work
[4] = biological target: T4, native NS4A-NS3 full length protein; test: 3D-Screen NS4A-NS3 full length mutant profiling platform, Huh7 cells, 3D-sensor VF-9A11, native; type: cell-based, HCV genotype 1b; parameters: the GSGS linker and the NS3 protease (residues 3-631); expressed in transfected cells; host or cells: Huh7 hepatoma cells
Procedure: as §1, §2

[5] = biological target: NS5BΔ21 L30R mutant fused to Gal4 DBD (pVVS475) (yeast; hepatitis C virus genotype 1b), P26662; test: cell-based or functional assay
[6] = biological target: NS5BΔ21 L30S mutant fused to Gal4 DBD (pVVS474) (yeast; hepatitis C virus genotype 1b), P26662; test: cell-based or functional assay
[7] = biological target: single chain NS4A-NS3 full length A156S mutant fused to Gal4 DBD (yeast; hepatitis C virus genotype 1b), P26662; test: cell-based or functional assay
[8] = biological target: single chain NS4A-NS3 full length A156T mutant fused to Gal4 DBD (yeast; hepatitis C virus genotype 1b), P26662; test: cell-based or functional assay
[9] = biological target: single chain NS4A-NS3 full length A156V mutant fused to Gal4 DBD (pVVS783) (yeast; hepatitis C virus genotype 1b), P26662; test: cell-based or functional assay
[10] = biological target: single chain NS4A-NS3 full length D168V mutant fused to Gal4 DBD (yeast; hepatitis C virus genotype 1b), P26662; test: cell-based or functional assay
[11] = biological target: single chain NS4A-NS3 full length R109K mutant fused to Gal4 DBD (yeast; hepatitis C virus genotype 1b), P26662; test: cell-based or functional assay
[12] = biological target: single chain NS4A-NS3 full length T54A mutant fused to Gal4 DBD (yeast; hepatitis C virus genotype 1b), P26662; test: cell-based or functional assay
[13] = biological target: single chain NS4A-NS3 full length protein (native) fused to the yeast Gal4 DBD (pVVS772) (yeast; hepatitis C virus genotype 1b), P26662; test: cell-based or functional assay
[14] = Huh7, VF-9A11, listed as cVVS-23591

C[C@]12CC[C@@H]3c4ccc(O)cc4CC[C@H]3[C@@H]1CC[C@@H]2O [Estradiol]
sensitivity of the control clone (ER + 3D sensor No 30.2 interaction) to ligand (ER): active

O=C(O)P(=O)(O)O [Foscarnet]
growth on selective medium and LacZ staining of the NS5BΔ21+N21C272 yeast clone (NS5BΔ21): had no effect; also recorded: didn't show any effect | inhibition at 10 µM (native NS5BΔ21): 11.7%

O=C(O)CP(=O)(O)O [Phosphonoacetic acid]
growth on selective medium and LacZ staining of the NS5BΔ21+N21C272 yeast clone (NS5BΔ21): had no effect | growth on selective medium and LacZ staining of the NS5BΔ21+N21C272 yeast clone (NS5BΔ21; listed as PAA): didn't show any effect | inhibition at 10 µM (native NS5BΔ21): -2.2%

NC(=O)c1ncn([C@@H]2O[C@H](CO)[C@@H](O)[C@H]2O)n1 [Ribavirin]
inhibition at 75 µM (native NS5BΔ21; 75 uM final concentration, 3D-sensor N21C272): 8.7%

CCC[C@H](NC(=O)[C@@H]1[C@H]2CCC[C@H]2CN1C(=O)[C@@H](NC(=O)[C@@H](NC(=O)c1cnccn1)C1CCCCC1)C(C)(C)C)C(=O)C(=O)NC1CC1 [cVVS-023518, 2-(2-{2-Cyclohexyl-2-[(pyrazine-2-carbonyl)-amino]-acetylamino}-3,3-dimethyl-butyryl)-octahydro-cyclopenta[c]pyrrole-1-carboxylic acid (1-cyclopropylaminooxalyl-butyl)-amide]
inhibition at 2 µM (native NS4A-NS3 protease): 90% | inhibition at 2 µM [1]: 60%

COc1ccc2c(O[C@@H]3C[C@H]4C(=O)N[C@]5(C(=O)O)C[C@H]5/C=C\CCCCC[C@H](NC(=O)OC5CCCC5)C(=O)N4C3)cc(-c3csc(NC(C)C)n3)nc2c1 [cVVS-023951, (1S,4R,6S,7Z,14S,18R)-14-cyclopentyloxycarbonylamino-18-[2-(2-isopropylamino-thiazol-4-yl)-7-methoxyquinolin-4-yloxy]-2,15-dioxo-3,16-diazatricyclo[14.3.0.04.6]nonadec-7-ene-4-carboxylic acid]
resistance profile: sensitivity of the platform to the compound's inhibition ([2]; Huh7, VF-9A11): high resistance | resistance profile: sensitivity of the platform to the compound's inhibition [2, 14]: resistance in the same range as what was previously reported | resistance profile: sensitivity of the platform to the compound's inhibition ([3]; Huh7, VF-9A11): high resistance | resistance profile: sensitivity of the platform to the compound's inhibition [3, 14]: resistance in the same range as what was previously reported | activity on the protease (protease): low nanomolar range | resistance profile: sensitivity of the platform to the compound's inhibition ([4]; native, Huh7, VF-9A11): active

VFII-N4: NS3 full length 3D-sensor peptide VNAWAWGW (SEQ ID No 65) (NS3 full length peptide sensor VFII-N4)
sensitivity of the 3D-sensor to Telaprevir and Ciluprevir [4]: as sensitive as the 3D-Sensor VF-9A11

DGCARCVASVQLYGD (modifications not checked) [3D-sensor N21C272 fused to the VP16 activation domain]
luciferase signal [5]: 3100 RLU | luciferase signal [6]: 7640 RLU

GTQKEAVIYPCYVPW (modifications not checked) [3D-sensor VF-9A11 fused to the VP16 activation domain]
luciferase signal over background [7]: > 3 | luciferase signal over background [8]: > 3 | luciferase signal over background [9]: > 3 | luciferase signal over background [10]: > 3 | luciferase signal over background [11]: > 3 | luciferase signal over background [12]: > 3 | luciferase signal over background [13]: > 3
